Data: ChEMBL document CHEMBL1143131, “Synthesis and anti-HIV activity of GS-9148 (2'-Fd4AP), a novel nucleoside phosphonate HIV reverse transcriptase inhibitor” (Bioorg Med Chem Lett, 2008)

What was measured:
[1] = test system: Human immunodeficiency virus; assay: Antiviral activity against HIV with reverse transcriptase K65R mutation assessed as fold resistance relative to wild type; assay type: functional
[2] = test system: Human immunodeficiency virus; assay: Antiviral activity against HIV with reverse transcriptase M184V mutation assessed as fold resistance relative to wild type; assay type: functional
[3] = Cytotoxicity against human MT2 cells; assay type: cell-based
[4] = test system: Human immunodeficiency virus; assay: Antiviral activity against HIV with reverse transcriptase 6TAMs mutation assessed as fold resistance relative to wild type; assay type: functional
[5] = test system: Human immunodeficiency virus 1; assay: Antiviral activity against wild type HIV1 3B in MT2 cells; assay type: functional, organism-based; settings: Human immunodeficiency virus 1, 3B
[6] = target: Human immunodeficiency virus type 1 reverse transcriptase (Human immunodeficiency virus 1, UniProt Q72547); assay: Inhibition of wild type HIV 3B reverse transcriptase

Row | Structure (SMILES) | Activity [1] | Activity [2] | CC50 [3] | Activity [4] | EC50 [5] | IC50 [6]
1 | Nc1ncnc2c1ncn2[C@@H]1C=C[C@H](OCP(=O)(O)O)O1 | 3.6 | 7.1 | > 1000 µM | 13.7 | 5.9 µM | 
2 | Nc1ncnc2c1ncn2[C@H]1C=C[C@@H](OCP(=O)(O)O)O1 | 2.9 | 0.9 | > 1000 µM | 2.9 | 2.1 µM | 0.6 µM
3 | Nc1ncnc2c1ncn2[C@@H]1O[C@H](OCP(=O)(O)O)C=C1F [GS-9148] | 1.1 | 0.8 | > 1000 µM | 4.3 |  | 1.9 µM
4 | C[C@H](Cn1cnc2c(N)ncnc21)OCP(=O)(O)O [TENOFOVIR ANHYDROUS] | 4.3 | 0.7 | > 500 µM | 8.8 |  | 
5 | Cc1cn([C@H]2C[C@H](N=[N+]=[N-])[C@@H](CO)O2)c(=O)[nH]c1=O [ZIDOVUDINE] | 1.2 | 0.7 | > 200 µM | >50 | 0.16 µM | 
